Assay results published in patent US10752900B2, “Oligonucleotides for modulating gene expression and uses thereof” (BIOGENERA S.P.A., priority 2012, dated 2020).

Assays:
[1] = system: MYCN gene; assay: QT-PCR, MYCN mRNA in Kelly cells; format: cell-based, human; settings: for mRNA inhibition (%): Table 1, PNA 1 μM, RNA extracted after 24 hours; for mRNA inhibit. (%): Table 11, MYCN, 2.5 μM
Procedure: (§1) For the purpose of assessing the ability of the oligonucleotides of the present invention to modulate the expression of the target genes, their ability to reduce the quantity of messenger RNA was analyzed using the Real-Time PCR technique.
(§2) For this purpose, use was made of 24-well plates, which were seeded with 5.0×10^4 cells with 0.3 ml of OPTI-MEM (GIBCO BRL) medium, 4% FBS and 2 mM L-glutammine (experiments in triplicate) per well.
(§3) The cells were incubated for 24 hours at 37° C., in an atmosphere containing 5% CO2 to permit adherence to the base of the wells.
Each oligonucleotide analyzed, except for the PNA oligonucleotides, was incubated beforehand with 2 μl of Lipofectamine 2000 (Invitrogen), with 0.3 mL of serum-free OPTI-MEM (GIBCO BRL) medium.
(§4) For each well, the oligonucleotides were analyzed at the following final concentrations: • the antisense oligonucleotides siRNA and siRNA gapmer (i.e. the oligonucleotides containing one or more monomers of chemically modified nucleic acids at the 3′ or 5′ end, while in the central portion they have monomers of nucleic acids that have not been modified or have been modified at the level of the phosphodiester bond as a phosphorothioate bond) were used at 200 nM; • the antisense oligonucleotides containing phosphorothioate DNA monomers, the RNA antigene oligonucleotides (agRNA) and the oligonucleotides containing DNA monomers and LNA monomers were used at 10 μM; • the morpholino oligonucleotides were used at a concentration of 1 μM, and • the PNA oligonucleotides were administered at a concentration of 1 μM.
(§5) The cells were treated with the oligonucleotides, adding FBS up to 4% 6 hours after administration of the same. After 24 hours the total RNA was extracted from each well and purified using the RNeasy Mini Kit (QIAGEN).
(§6) Assays were performed on 8 cell lines obtained from 5 different human tumours which are correlated with MYCN expression, i.e.: • as a neuroblastoma model use was made of the cell lines Kelly, IMR-32 (where the MYCN gene is amplified and superexpressed) and SKNBE2c and LAN1 (where the MYCN gene is amplified and superexpressed and the p53 gene is mutated); • as a rabdomiosarcoma model use was made of the cell line RH30, where the MYCN gene is amplified and superexpressed; • as a Wilms' tumour model use was made of the cell line WiT49, where the MYCN gene is amplified and superexpressed; • as a retinoblastoma model use was made of the cell line Y79, where the MYCN gene is amplified and superexpressed; and • as a model of small cell lung cancer use was made of the cell line H69 where the MYCN gene is amplified and superexpressed.
(§7) As a control, use was made of the same cell lines as listed above treated with sterile water instead of oligonucleotides. Each RNA sample was quantified (in duplicate) using a NanoDrop ND-1000 spectrophotometer (NanoDrop Technologies). The first strand of cDNA was produced using the cDNA Synthesis Kit for RT-PCR (Roche). For the cDNA synthesis reaction a total of 1 μg of RNA was used. For the real-time PCR, 10 ng of cDNA in a final volume of 20 μl was used with SYBR Green Master Mix 2× (Applied Biosystems) (3 identical experiments were conducted in triplicate). Two housekeeping genes were used as positive controls: GAPDH and beta-actin (ACTB).
(§8) The conditions of the QT-PCR reaction were: 10 min at 95° C., 20 sec at 95° C., and 30 sec at 60° C., for 50 cycles.
(§9) As far as the PNA oligonucleotides are concerned, the results regarding their ability to inhibit the transcription of the MYCN gene and proliferation of Kelly cells are shown in Table 1.
(§10) The oligonucleotides were tested in vitro (at a concentration of 2.5 μM) to determine their ability to inhibit the transcription of the gene they are directed against by measuring the levels of the gene messenger in cellular models in which the gene of interest is overexpressed. The methods used are the ones described in example 1. […]

[2] = system: NIH-3T3; assay: Cellular proliferation, NIH-3T3 fibroblastoid-type cells; format: cell-based; settings: Table 1; cells that do not express MYCN
Procedure: (§11) Cell viability was assessed by means of an ATP-Lite assay (Luminescence ATP Detection Assay System, PerkinElmer) and is reported as the ratio between the average signal of the treated wells compared to the average value of the wells of untreated control cells. The cells were processed following the instructions provided with the kit.
(§12) Moreover, the oligonucleotides having SEQ ID NO 1-23 were administered in lines of fibroblastoid-type cells (NIH-3T3 and Phoenix) and the results are shown in Table 1 (last two columns). […]

[3] = system: Phoenix; assay: Cellular proliferation, Phoenix fibroblastoid-type cells; format: cell-based; settings: Table 1; cells that do not express MYCN
Procedure: as §11, §12

[4] = system: Kelly cells; assay: Cellular proliferation assay (ATP-Lite), Kelly cells; format: cell-based, human
Procedure: (§13) For the purpose of assessing the gene modulation ability of the oligonucleotides of the present invention, the effect of their administration on cell viability was determined.
(§14) For this purpose 5×10^3 cells per well were seeded into 96-well cell culture plates (experiments conducted in triplicate) with 100 μl of OPTI-MEM (GIBCO BRL) medium containing 4% FBS and 2 mM of L-glutammine.
(§15) The PNA oligonucleotides were administered at different concentrations (1 μM-2.5 μM-5 μM-10 μM) in order to observe a dose-effect relationship.
As regards all the other oligonucleotides, the concentrations at which they administered are listed in the paragraph:
(§16) The viability of the treated cells was determined at 48, 72, 96 and 168 hours after treatment.
as §11
(§17) The assays were performed on the same cell lines used to determine the levels of the MYCN gene messenger and listed in the paragraph: Treatments with Oligonucleotides—QT-PCR.
as §9
(§18) The ability of the tested oligonucleotides to inhibit the messenger of the gene of interest was measured and the proliferative capacity of the cells following administration of the oligonucleotides was also assessed.

[5] = system: MYCN gene; assay: QT-PCR, MYCN mRNA in H69 cells; format: cell-based, human; settings: Table 11, MYCN, 2.5 μM
Procedure: as §1, §2, §3, §4, §5, §6, §7, §8
(§19) The PNAs having SEQ ID NO: 1-12 were also tested on different cell lines which overexpress MYCN (Kelly, SKNBE2c, RH30, WiT49, WERI-Rb1 1 and H69). The results are shown in Table 6 and confirm the selectivity and specificity of the inhibition effect of the PNAs on the product of protein translation of the MYCN gene.
as §10

[6] = system: H69; assay: Cellular proliferation assay (ATP-Lite), H69 cells; format: cell-based, human; settings: Table 11, MYCN-directed PNA, 2.5 μM
Procedure: as §13, §14, §15, §16, §11, §17, §19, §18

[7] = Table 1, treated vs untreated control cells
[8] = Table 11, MYCN-directed PNA, 2.5 μM

Substance	mRNA inhibition (%) [1]	NIH-3T3 prolif. (%) [2]	Phoenix prolif. (%) [3]	Cell Prolif. (%) [4, 7]	mRNA inhibit. (%) [1]	Cell Prolif. (%) [4, 8]	mRNA inhibit. (%) [5]	Cell Prolif. (%) [6]
SEQ ID NO: 23: PNA ATATCCCCCGAGCTTC without groups of consecutive guanines, negative control (PNA backbone, chemistry not fully specified) [reference compound]	2%	100%	100%	100%				
SEQ ID NO: 66: PNA TCGGGAGCAGTGGGCA directed against MYCN (all peptide nucleic acid (PNA); antigene PNA, further chemistry not fully specified)					57%	60%	41%	73%
SEQ ID NO: 69: PNA TCGGCGGGAGGTAAGG directed against MYCN (all peptide nucleic acid (PNA); antigene PNA)					76%	30%	67%	45%
SEQ ID NO: 15: PNA antigene oligonucleotide ACTGTGTTGGAGCCGA directed against MYCN (all peptide nucleic acid (PNA))	37%	100%	100%	77%				
SEQ ID NO: 14: PNA antigene oligonucleotide CCCGGACGAAGATGAC directed against MYCN (all peptide nucleic acid (PNA))	40%	100%	100%	70%				
SEQ ID NO: 18: PNA GTGACAGTCATCTGTC without groups of consecutive guanines, negative control (PNA backbone, chemistry not fully specified) [reference compound]	10%	100%	100%	98%				
SEQ ID NO: 21: PNA CTCGAGTTTGACTCGC without groups of consecutive guanines, negative control (PNA backbone, chemistry not fully specified) [reference compound]	1%	100%	100%	100%				
SEQ ID NO: 13: PNA antigene oligonucleotide ACGCTCAGGGACCACG directed against MYCN (all peptide nucleic acid (PNA))	48%	100%	100%	66%				
SEQ ID NO: 22: PNA GCGCCTCCCCTGATTT without groups of consecutive guanines, negative control (PNA backbone, chemistry not fully specified) [reference compound]	2%	100%	100%	100%				
SEQ ID NO: 20: PNA CGTCGATTTCTTCCTC without groups of consecutive guanines, negative control (PNA backbone, chemistry not fully specified) [reference compound]	5%	100%	100%	100%				
SEQ ID NO: 68: PNA TGGAGGTCGGCGCCGG directed against MYCN (all peptide nucleic acid (PNA); antigene PNA)					74%	35%	62%	49%
SEQ ID NO: 17: PNA TGTGACAGTCATCTGT without groups of consecutive guanines, negative control (PNA backbone, chemistry not fully specified) [reference compound]	10%	100%	100%	98%				
SEQ ID NO: 67: PNA GCGGGTCGCGGGCACG directed against MYCN (all peptide nucleic acid (PNA); antigene PNA)					60%	56%	42%	71%
SEQ ID NO: 19: PNA GACAGTCATCTGTCTG without groups of consecutive guanines, negative control (PNA backbone, chemistry not fully specified) [reference compound]	5%	100%	100%	100%				
SEQ ID NO: 16: PNA CCTGTCGTAGACAGCT without groups of consecutive guanines, negative control (PNA backbone, chemistry not fully specified) [reference compound]	14%	100%	100%	90%				
